Measurements reported in patent US10206394B2, “Herbicidal compounds” (Syngenta Participations AG, priority 2014, dated 2019).
Where two headings read alike, the source gives them in different places.

Key:
Experiment in all cases: Glasshouse assay for herbicidal activity (pre- and post-emergence), percentage phytotoxicity
Type in all cases: in vivo
[1] = tested on: Alopecurus myosuroides (ALOMY); details: Alopecurus myosuroides
Outline: (§1)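 Pot-grown plants treated one day after sowing (pre-emergence) or at about 12 days (post-emergence); glasshouse at 24/18° C (warm) or 20/16° C (cool species) day/night, 16 h light, 65% humidity. Visual % phytotoxicity (0 = none, 100 = total damage) scored at 15 DAA post or 20 DAA pre.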

Avena fatua (AVEFA) = details: Avena fatua
Outline: as §1

[2] = tested on: Echinochloa crus-galli (ECHCG); details: Echinochloa crus-galli
Outline: as §1

Lolium perenne (LOLPE) = details: Lolium perenne
Outline: as §1

[3] = post-emergence, 360 h, 250 g/ha, post-emergence, 15 DAA, visual assessment (100%=total damage, 0%=no damage), read-out: Post-emergence herbicidal activity (percentage phytotoxicity) ALOMY POST
[4] = pre-emergence, 480 h, 250 g/ha, pre-emergence, 20 DAA, visual assessment (100%=total damage, 0%=no damage), read-out: Pre-emergence herbicidal activity (percentage phytotoxicity) ALOMY PRE
[5] = post-emergence, 360 h, 250 g/ha, post-emergence, 15 DAA, visual assessment (100%=total damage, 0%=no damage), read-out: Post-emergence herbicidal activity (percentage phytotoxicity) AVEFA POST
[6] = pre-emergence, 480 h, 250 g/ha, pre-emergence, 20 DAA, visual assessment (100%=total damage, 0%=no damage), read-out: Pre-emergence herbicidal activity (percentage phytotoxicity) AVEFA PRE
[7] = post-emergence, 360 h, 250 g/ha, post-emergence, 15 DAA, visual assessment (100%=total damage, 0%=no damage), read-out: Post-emergence herbicidal activity (percentage phytotoxicity) ECHCG POST
[8] = pre-emergence, 480 h, 250 g/ha, pre-emergence, 20 DAA, visual assessment (100%=total damage, 0%=no damage), read-out: Pre-emergence herbicidal activity (percentage phytotoxicity) ECHCG PRE
[9] = post-emergence, 360 h, 250 g/ha, post-emergence, 15 DAA, visual assessment (100%=total damage, 0%=no damage), read-out: Post-emergence herbicidal activity (percentage phytotoxicity) LOLPE POST
[10] = pre-emergence, 480 h, 250 g/ha, pre-emergence, 20 DAA, visual assessment (100%=total damage, 0%=no damage), read-out: Pre-emergence herbicidal activity (percentage phytotoxicity) LOLPE PRE
[11] = post-emergence, 360 h, POST-emergence, rate 250 g/ha, visual score 15 DAA (100%=total damage, 0%=no damage), read-out: Post-emergence herbicidal activity (percentage phytotoxicity) ALOMY POST
[12] = pre-emergence, 480 h, PRE-emergence, rate 250 g/ha, visual score 20 DAA (100%=total damage, 0%=no damage), read-out: Pre-emergence herbicidal activity (percentage phytotoxicity) ALOMY PRE
[13] = post-emergence, 360 h, POST-emergence, rate 250 g/ha, visual score 15 DAA (100%=total damage, 0%=no damage), read-out: Post-emergence herbicidal activity (percentage phytotoxicity) AVEFA POST
[14] = pre-emergence, 480 h, PRE-emergence, rate 250 g/ha, visual score 20 DAA (100%=total damage, 0%=no damage), read-out: Pre-emergence herbicidal activity (percentage phytotoxicity) AVEFA PRE
[15] = post-emergence, 360 h, POST-emergence, rate 250 g/ha, visual score 15 DAA (100%=total damage, 0%=no damage), read-out: Post-emergence herbicidal activity (percentage phytotoxicity) ECHCG POST
[16] = pre-emergence, 480 h, PRE-emergence, rate 250 g/ha, visual score 20 DAA (100%=total damage, 0%=no damage), read-out: Pre-emergence herbicidal activity (percentage phytotoxicity) ECHCG PRE
[17] = post-emergence, 360 h, POST-emergence, rate 250 g/ha, visual score 15 DAA (100%=total damage, 0%=no damage), read-out: Post-emergence herbicidal activity (percentage phytotoxicity) LOLPE POST
[18] = pre-emergence, 480 h, PRE-emergence, rate 250 g/ha, visual score 20 DAA (100%=total damage, 0%=no damage), read-out: Pre-emergence herbicidal activity (percentage phytotoxicity) LOLPE PRE
[19] = post-emergence, 360 h, Rate 250 g/ha, post-emergence, assessed visually 15 DAA, 100%=total damage, 0%=no damage, read-out: Post-emergence herbicidal activity (percentage phytotoxicity) ALOMY POST
[20] = pre-emergence, 480 h, Rate 250 g/ha, pre-emergence, assessed visually 20 DAA, 100%=total damage, 0%=no damage, read-out: Pre-emergence herbicidal activity (percentage phytotoxicity) ALOMY PRE
[21] = post-emergence, 360 h, Rate 250 g/ha, post-emergence, assessed visually 15 DAA, 100%=total damage, 0%=no damage, read-out: Post-emergence herbicidal activity (percentage phytotoxicity) AVEFA POST
[22] = pre-emergence, 480 h, Rate 250 g/ha, pre-emergence, assessed visually 20 DAA, 100%=total damage, 0%=no damage, read-out: Pre-emergence herbicidal activity (percentage phytotoxicity) AVEFA PRE
[23] = post-emergence, 360 h, Rate 250 g/ha, post-emergence, assessed visually 15 DAA, 100%=total damage, 0%=no damage, read-out: Post-emergence herbicidal activity (percentage phytotoxicity) ECHCG POST
[24] = pre-emergence, 480 h, Rate 250 g/ha, pre-emergence, assessed visually 20 DAA, 100%=total damage, 0%=no damage, read-out: Pre-emergence herbicidal activity (percentage phytotoxicity) ECHCG PRE
[25] = post-emergence, 360 h, Rate 250 g/ha, post-emergence, assessed visually 15 DAA, 100%=total damage, 0%=no damage, read-out: Post-emergence herbicidal activity (percentage phytotoxicity) LOLPE POST
[26] = pre-emergence, 480 h, Rate 250 g/ha, pre-emergence, assessed visually 20 DAA, 100%=total damage, 0%=no damage, read-out: Pre-emergence herbicidal activity (percentage phytotoxicity) LOLPE PRE

| Structure (SMILES) | pest or weed control at 250 g/ha [1, 11] [%] | pest or weed control at 250 g/ha [1, 12] [%] | pest or weed control at 250 g/ha (Avena fatua (AVEFA); [13]) [%] | pest or weed control at 250 g/ha (Avena fatua (AVEFA); [14]) [%] | pest or weed control at 250 g/ha [2, 15] [%] | pest or weed control at 250 g/ha [2, 16] [%] | pest or weed control at 250 g/ha (Lolium perenne (LOLPE); [17]) [%] | pest or weed control at 250 g/ha (Lolium perenne (LOLPE); [18]) [%] | pest or weed control at 250 g/ha [1, 19] [%] | pest or weed control at 250 g/ha [1, 20] [%] | pest or weed control at 250 g/ha (Avena fatua (AVEFA); [21]) [%] | pest or weed control at 250 g/ha (Avena fatua (AVEFA); [22]) [%] | pest or weed control at 250 g/ha [2, 23] [%] | pest or weed control at 250 g/ha [2, 24] [%] | pest or weed control at 250 g/ha (Lolium perenne (LOLPE); [25]) [%] | pest or weed control at 250 g/ha (Lolium perenne (LOLPE); [26]) [%] | further results |
| --- | --- | --- | --- | --- | --- | --- | --- | --- | --- | --- | --- | --- | --- | --- | --- | --- | --- |
| C=C(F)CNC(=O)CC1CC(=O)C(c2c(C)cc(C)cc2C)C1=O (centres unmarked) [Compound B92] |  |  |  |  |  |  |  |  |  |  |  |  |  |  |  |  | pest or weed control at 250 g/ha [1, 3]: 90%; pest or weed control at 250 g/ha [1, 4]: 90%; pest or weed control at 250 g/ha (Avena fatua (AVEFA); [5]): 80%; pest or weed control at 250 g/ha (Avena fatua (AVEFA); [6]): 30%; pest or weed control at 250 g/ha [2, 7]: 80%; pest or weed control at 250 g/ha [2, 8]: 90%; pest or weed control at 250 g/ha (Lolium perenne (LOLPE); [9]): 90%; pest or weed control at 250 g/ha (Lolium perenne (LOLPE); [10]): 100% |
| C#CCN(C)C(=O)CC1CC(=O)C(c2c(C)cc(-c3ncc(Cl)cn3)cc2C)C1=O (centres unmarked) [Compound B349] |  |  |  |  |  |  |  |  |  |  |  |  |  |  |  |  | pest or weed control at 250 g/ha ([1]; post-emergence, 360 h, Rate 250 g/ha, post-emergence, visual assessment 15 DAA, 100%=total damage, 0%=no damage, read-out: Post-emergence herbicidal activity (percentage phytotoxicity) ALOMY POST): 100%; pest or weed control at 250 g/ha ([1]; pre-emergence, 480 h, Rate 250 g/ha, pre-emergence, visual assessment 20 DAA, 100%=total damage, 0%=no damage, read-out: Pre-emergence herbicidal activity (percentage phytotoxicity) ALOMY PRE): 100%; pest or weed control at 250 g/ha (Avena fatua (AVEFA); post-emergence, 360 h, Rate 250 g/ha, post-emergence, visual assessment 15 DAA, 100%=total damage, 0%=no damage, read-out: Post-emergence herbicidal activity (percentage phytotoxicity) AVEFA POST): 100%; pest or weed control at 250 g/ha (Avena fatua (AVEFA); pre-emergence, 480 h, Rate 250 g/ha, pre-emergence, visual assessment 20 DAA, 100%=total damage, 0%=no damage, read-out: Pre-emergence herbicidal activity (percentage phytotoxicity) AVEFA PRE): 90%; pest or weed control at 250 g/ha ([2]; post-emergence, 360 h, Rate 250 g/ha, post-emergence, visual assessment 15 DAA, 100%=total damage, 0%=no damage, read-out: Post-emergence herbicidal activity (percentage phytotoxicity) ECHCG POST): 100%; pest or weed control at 250 g/ha ([2]; pre-emergence, 480 h, Rate 250 g/ha, pre-emergence, visual assessment 20 DAA, 100%=total damage, 0%=no damage, read-out: Pre-emergence herbicidal activity (percentage phytotoxicity) ECHCG PRE): 90%; pest or weed control at 250 g/ha (Lolium perenne (LOLPE); post-emergence, 360 h, Rate 250 g/ha, post-emergence, visual assessment 15 DAA, 100%=total damage, 0%=no damage, read-out: Post-emergence herbicidal activity (percentage phytotoxicity) LOLPE POST): 100%; pest or weed control at 250 g/ha (Lolium perenne (LOLPE); pre-emergence, 480 h, Rate 250 g/ha, pre-emergence, visual assessment 20 DAA, 100%=total damage, 0%=no damage, read-out: Pre-emergence herbicidal activity (percentage phytotoxicity) LOLPE PRE): 90% |
| C#CCNC(=O)CC1CC(=O)C(c2c(C)cccc2CC)C1=O (centres unmarked) [Compound B151] |  |  |  |  |  |  |  |  |  |  |  |  |  |  |  |  | pest or weed control at 250 g/ha [1, 3]: 100%; pest or weed control at 250 g/ha [1, 4]: 100%; pest or weed control at 250 g/ha (Avena fatua (AVEFA); [5]): 100%; pest or weed control at 250 g/ha (Avena fatua (AVEFA); [6]): 90%; pest or weed control at 250 g/ha [2, 7]: 100%; pest or weed control at 250 g/ha [2, 8]: 100%; pest or weed control at 250 g/ha (Lolium perenne (LOLPE); [9]): 90%; pest or weed control at 250 g/ha (Lolium perenne (LOLPE); [10]): 90% |
| Cc1cc(-c2ncc(F)cn2)cc(C)c1C1C(=O)CC(CC(=O)NC/C=C/Cl)C1=O (centres unmarked) [Compound B302] | 100 | 100 | 100 | 100 | 100 | 100 | 100 | 100 |  |  |  |  |  |  |  |  |  |
| Cc1cc(-c2cnc(Cl)cn2)cc(C)c1C1C(=O)CC(CC(=O)NCc2cccs2)C1=O (centres unmarked) [Compound A148] |  |  |  |  |  |  |  |  | 70 | 70 | 100 | 80 | 100 | 100 | 90 | 80 |  |
| Cc1cc(OCC(F)(F)F)cc(C)c1C1C(=O)CC(CC(=O)N(C)C(C)(C)C)C1=O (centres unmarked) [Compound B212] | 90 | 60 | 60 | 60 | 90 | 100 | 70 | 90 |  |  |  |  |  |  |  |  |  |
| C#CCNC(=O)CC1CC(=O)C(c2c(C)cc(C)cc2C)C1=O (centres unmarked) [Compound A10] |  |  |  |  |  |  |  |  | 80 | 70 | 60 | 70 | 90 | 90 | 90 | 90 |  |
| Cc1cccc(CNC(=O)CC2CC(=O)C(c3c(C)cc(-c4ncc(Cl)cc4F)cc3C)C2=O)c1 (centres unmarked) [Compound A119] |  |  |  |  |  |  |  |  | 60 | 40 | 90 | 60 | 100 | 100 | 90 | 70 |  |
| Cc1cc(-c2ncc(F)cc2F)cc(C)c1C1C(=O)CC(CC(=O)NCc2ccccc2)C1=O (centres unmarked) [Compound B181] | 100 | 70 | 100 | 70 | 100 | 100 | 100 | 100 |  |  |  |  |  |  |  |  |  |
| Cc1cc(-c2ncc(F)cn2)cc(C)c1C1C(=O)CC(CC(=O)NCc2cccc(F)c2)C1=O (centres unmarked) [Compound B264] | 100 | 100 | 100 | 80 | 100 | 100 | 100 | 90 |  |  |  |  |  |  |  |  |  |
